According to PubChem BioAssay AID1259407 (Chemical Carcinogenesis Research Information System (CCRIS), 2018):
Active and inactive are the calls of the source. The rule behind the calls is not given here.

Tested on: CCRIS mutagenicity, Ames/micronucleus/aberration tests
Assay: CCRIS mutagenicity studies
[1] = Test System: AMES SALMONELLA TYPHIMURIUM, Strain/Indicator: TA100, Metabolic Activation: NONE, Method: STANDARD PLATE
[2] = Test System: AMES SALMONELLA TYPHIMURIUM, Strain/Indicator: TA98, Metabolic Activation: NONE, Method: PREINCUBATION
[3] = Test System: AMES SALMONELLA TYPHIMURIUM, Strain/Indicator: TA100, Metabolic Activation: NONE, Method: PREINCUBATION

Measured: mutagenic call

Oc1cccc2cc3cccc(O)c3c(O)c12
inactive: [1] inactive; negative | Test System: AMES SALMONELLA TYPHIMURIUM, Strain/Indicator: TA100, Metabolic Activation: RAT, LIVER, S-9, AROCLOR 1254, Method: STANDARD PLATE inactive; negative | Test System: AMES SALMONELLA TYPHIMURIUM, Strain/Indicator: TA1535, Metabolic Activation: NONE, Method: STANDARD PLATE inactive; negative | Test System: AMES SALMONELLA TYPHIMURIUM, Strain/Indicator: TA1535, Metabolic Activation: RAT, LIVER, S-9, AROCLOR 1254, Method: STANDARD PLATE inactive; negative | Test System: E. COLI, Strain/Indicator: WP2 UVRA, Metabolic Activation: HAMSTER, LIVER, S-9, AROCLOR 1254, Method: STANDARD PLATE inactive; negative | Test System: E. COLI, Strain/Indicator: WP2 UVRA, Metabolic Activation: HAMSTER, LIVER, S-9, Method: STANDARD PLATE inactive; negative | Test System: E. COLI, Strain/Indicator: WP2 UVRA, Metabolic Activation: MOUSE, LIVER, S-9, AROCLOR 1254, Method: STANDARD PLATE inactive; negative | Test System: E. COLI, Strain/Indicator: WP2 UVRA, Metabolic Activation: MOUSE, LIVER, S-9, Method: STANDARD PLATE inactive; negative | Test System: E. COLI, Strain/Indicator: WP2 UVRA, Metabolic Activation: NONE, Method: STANDARD PLATE inactive; negative | Test System: E. COLI, Strain/Indicator: WP2 UVRA, Metabolic Activation: RAT, LIVER, S-9, AROCLOR 1254, Method: STANDARD PLATE inactive; negative | Test System: E. COLI, Strain/Indicator: WP2 UVRA, Metabolic Activation: RAT, LIVER, S-9, Method: STANDARD PLATE inactive; negative

C[C@]12CCC(=O)C=C1CC[C@@H]1[C@@H]2CC[C@]2(C)C(=O)CC[C@@H]12
inactive: End Point: In vivo micronucleus, Test System: Micronucleated bone marrow polychromatic erythrocytes, Species: Rat, Strain/Sex: F344/N / Male, Route: Oral inactive; negative | End Point: In vivo micronucleus, Test System: Micronucleated normochromatic erythrocytes in peripheral blood, Species: Mouse, Strain/Sex: B6C3F1/Female, Route: Oral inactive; negative. (the response was judged equivocal based on a statistically significan | End Point: In vivo micronucleus, Test System: Micronucleated normochromatic erythrocytes in peripheral blood, Species: Mouse, Strain/Sex: B6C3F1/Male, Route: Oral inactive; negative | Test System: Ames Salmonella typhimurium, Strain/Indicator: TA97, Metabolic Activation: Hamster, Liver, S-9, Aroclor 1254 (10%), Method: Preincubation inactive; negative | Test System: Ames Salmonella typhimurium, Strain/Indicator: TA97, Metabolic Activation: Hamster, Liver, S-9, Aroclor 1254 (30%), Method: Preincubation inactive; negative | Test System: Ames Salmonella typhimurium, Strain/Indicator: TA97, Metabolic Activation: None, Method: Preincubation inactive; negative | Test System: Ames Salmonella typhimurium, Strain/Indicator: TA97, Metabolic Activation: Rat, Liver, S-9, Aroclor 1254 (10%), Method: Preincubation inactive; negative | Test System: Ames Salmonella typhimurium, Strain/Indicator: TA97, Metabolic Activation: Rat, Liver, S-9, Aroclor 1254 (30%), Method: Preincubation inactive; negative | Test System: Ames Salmonella typhimurium, Strain/Indicator: TA98, Metabolic Activation: Hamster, Liver, S-9, Aroclor 1254 (10%), Method: Preincubation inactive; negative | Test System: Ames Salmonella typhimurium, Strain/Indicator: TA98, Metabolic Activation: Hamster, Liver, S-9, Aroclor 1254 (30%), Method: Preincubation inactive; negative | Test System: Ames Salmonella typhimurium, Strain/Indicator: TA98, Metabolic Activation: None, Method: Preincubation inactive; negative | Test System: Ames Salmonella typhimurium, Strain/Indicator: TA98, Metabolic Activation: Rat, Liver, S-9, Aroclor 1254 (10%), Method: Preincubation inactive; negative | Test System: Ames Salmonella typhimurium, Strain/Indicator: TA98, Metabolic Activation: Rat, Liver, S-9, Aroclor 1254 (30%), Method: Preincubation inactive; negative | Test System: Ames Salmonella typhimurium, Strain/Indicator: TA100, Metabolic Activation: Hamster, Liver, S-9, Aroclor 1254 (10%), Method: Preincubation inactive; negative | Test System: Ames Salmonella typhimurium, Strain/Indicator: TA100, Metabolic Activation: Hamster, Liver, S-9, Aroclor 1254 (30%), Method: Preincubation inactive; negative | Test System: Ames Salmonella typhimurium, Strain/Indicator: TA100, Metabolic Activation: None, Method: Preincubation inactive; negative | Test System: Ames Salmonella typhimurium, Strain/Indicator: TA100, Metabolic Activation: Rat, Liver, S-9, Aroclor 1254 (10%), Method: Preincubation inactive; negative | Test System: Ames Salmonella typhimurium, Strain/Indicator: TA100, Metabolic Activation: Rat, Liver, S-9, Aroclor 1254 (30%), Method: Preincubation inactive; negative | Test System: Ames Salmonella typhimurium, Strain/Indicator: TA1535, Metabolic Activation: Hamster, Liver, S-9, Aroclor 1254 (10%), Method: Preincubation inactive; negative | Test System: Ames Salmonella typhimurium, Strain/Indicator: TA1535, Metabolic Activation: Hamster, Liver, S-9, Aroclor 1254 (30%), Method: Preincubation inactive; negative | Test System: Ames Salmonella typhimurium, Strain/Indicator: TA1535, Metabolic Activation: None, Method: Preincubation inactive; negative | Test System: Ames Salmonella typhimurium, Strain/Indicator: TA1535, Metabolic Activation: Rat, Liver, S-9, Aroclor 1254 (10%), Method: Preincubation inactive; negative | Test System: Ames Salmonella typhimurium, Strain/Indicator: TA1535, Metabolic Activation: Rat, Liver, S-9, Aroclor 1254 (30%), Method: Preincubation inactive; negative | Test System: E. coli, Strain/Indicator: WP2 uvrA/pKM101, Metabolic Activation: None, Method: Preincubation inactive; negative | Test System: E. coli, Strain/Indicator: WP2 uvrA/pKM101, Metabolic Activation: Rat, Liver, S-9, Aroclor 1254 (10%), Method: Preincubation inactive; negative

C=CCOC(=O)c1ccccc1N
inactive: Test System: AMES SALMONELLA TYPHIMURIUM, Strain/Indicator: TA98, Metabolic Activation: HAMSTER, LIVER, S-9, AROCLOR 1254 (10%), Method: PREINCUBATION inactive; negative | [2] inactive; negative | Test System: AMES SALMONELLA TYPHIMURIUM, Strain/Indicator: TA98, Metabolic Activation: RAT, LIVER, S-9, AROCLOR 1254 (10%), Method: PREINCUBATION inactive; negative | Test System: AMES SALMONELLA TYPHIMURIUM, Strain/Indicator: TA100, Metabolic Activation: HAMSTER, LIVER, S-9, AROCLOR 1254 (10%), Method: PREINCUBATION inactive; negative | [3] inactive; negative | Test System: AMES SALMONELLA TYPHIMURIUM, Strain/Indicator: TA100, Metabolic Activation: RAT, LIVER, S-9, AROCLOR 1254 (10%), Method: PREINCUBATION inactive; negative | Test System: AMES SALMONELLA TYPHIMURIUM, Strain/Indicator: TA1535, Metabolic Activation: HAMSTER, LIVER, S-9, AROCLOR 1254 (10%), Method: PREINCUBATION inactive; negative | Test System: AMES SALMONELLA TYPHIMURIUM, Strain/Indicator: TA1535, Metabolic Activation: NONE, Method: PREINCUBATION inactive; negative | Test System: AMES SALMONELLA TYPHIMURIUM, Strain/Indicator: TA1535, Metabolic Activation: RAT, LIVER, S-9, AROCLOR 1254 (10%), Method: PREINCUBATION inactive; negative | Test System: AMES SALMONELLA TYPHIMURIUM, Strain/Indicator: TA1537, Metabolic Activation: HAMSTER, LIVER, S-9, AROCLOR 1254 (10%), Method: PREINCUBATION inactive; negative | Test System: AMES SALMONELLA TYPHIMURIUM, Strain/Indicator: TA1537, Metabolic Activation: NONE, Method: PREINCUBATION inactive; negative | Test System: AMES SALMONELLA TYPHIMURIUM, Strain/Indicator: TA1537, Metabolic Activation: RAT, LIVER, S-9, AROCLOR 1254 (10%), Method: PREINCUBATION inactive; negative

CC[C@@]1(O)C(=O)OCc2c1cc1n(c2=O)Cc2cc3c(CN(C)C)c(O)ccc3nc2-1
active: Test System: CHINESE HAMSTER V-79, Strain/Indicator: V-79 (HPRT)/6-THIOGUANINE, Metabolic Activation: NONE active; positive

C=CCc1[c-]cccc1.C=CCc1[c-]cccc1.[Pt+2]
inactive: Test System: AMES SALMONELLA TYPHIMURIUM, Strain/Indicator: TA92, Metabolic Activation: NONE, Method: STANDARD PLATE inactive; negative | Test System: AMES SALMONELLA TYPHIMURIUM, Strain/Indicator: TA98, Metabolic Activation: NONE, Method: STANDARD PLATE inactive; negative | [1] inactive; negative | Test System: AMES SALMONELLA TYPHIMURIUM, Strain/Indicator: TA2410, Metabolic Activation: NONE, Method: STANDARD PLATE inactive; negative

O=S(=O)(O)Oc1ccc2cc3ccc4cccc5ccc(c2c1)c3c45
inactive: [2] inactive; negative | Test System: AMES SALMONELLA TYPHIMURIUM, Strain/Indicator: TA98, Metabolic Activation: RAT, LUNG, S-9, Method: PREINCUBATION inactive; negative

COc1nncc2ccncc12
inactive: [2] inactive; negative | Test System: AMES SALMONELLA TYPHIMURIUM, Strain/Indicator: TA98, Metabolic Activation: RAT, LIVER, S-9, PCB, Method: PREINCUBATION inactive; negative | [3] inactive; negative | Test System: AMES SALMONELLA TYPHIMURIUM, Strain/Indicator: TA100, Metabolic Activation: RAT, LIVER, S-9, PCB, Method: PREINCUBATION inactive; negative

Cc1cc2cc3cc(C)c(N)cc3nc2cc1N
active: Test System: AMES SALMONELLA TYPHIMURIUM, Strain/Indicator: TA98, Method: PREINCUBATION active; positive | Test System: AMES SALMONELLA TYPHIMURIUM, Strain/Indicator: TA100, Method: PREINCUBATION active; positive
